One series relates to HSV-1. Description: Pre-incubation of viral inoculum with compound (virus infectivity). The class given is cell-based, herpes simplex virus 1. The method, then: Tests were carried out to determine if the early event inhibited by compound #46 was a pre- or post-entry event. A high titer HSV-1 stock was pre-incubated with compound #46 at 50 μM or was incubated with an equivalent amount of DMSO-containing medium for 1 hour at 37° C. Then the viral stocks with compound or DMSO were diluted such that Vero cells were infected at a moi of 0.1 as usual. […] A standard inhibition assay using compound #46 at 50 μM was conducted in parallel as a positive control, and viral titers were determined by plaque assay at 24 hours post-infection. The standard conditions of infection at 50 μM caused a 5.5 log10 suppression of HSV-1 replication relative to the DMSO pre-treatment sample.

A further series has as its system HSV-1 strain KOS. In words: Resistance evolution by passage of HSV-1 KOS in presence of inhibitor. The format is cell-based, herpes simplex virus 1. Particulars: compared with unselected KOS. Here is the method:
Cultures were scraped and collected when virus-induced cytopathic effect was evident (24-72 h). […] This process was repeated three times, maintaining the independent lineages. […] Inhibition was determined by subtracting a lineage's titer in the presence of inhibitor from its titer in the presence of diluent control.

A further series addresses T1, human RNaseH1 (Homo sapiens, UniProt O60930).
T1 construct: hexahistidine; made in house; host or cells: E. coli
T1 sequence (O60930 1-286): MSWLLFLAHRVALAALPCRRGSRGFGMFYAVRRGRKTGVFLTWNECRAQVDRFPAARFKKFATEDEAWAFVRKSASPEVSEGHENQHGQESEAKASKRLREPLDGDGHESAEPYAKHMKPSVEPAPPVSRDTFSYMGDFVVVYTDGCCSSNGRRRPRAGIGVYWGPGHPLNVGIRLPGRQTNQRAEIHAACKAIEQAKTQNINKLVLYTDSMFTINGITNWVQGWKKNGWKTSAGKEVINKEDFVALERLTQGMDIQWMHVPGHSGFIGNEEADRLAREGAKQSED
Particulars: Hu et al., 2013; cited from earlier work.

For another series, the system named is HSV-2. In words: Time-of-addition experiment, HSV-2 in Vero cells. The format is cell-based, herpes simplex virus 2. The note with it: 10 μM. The method, then: The inventors next varied the time post-infection that the inhibitors were added to begin defining the stage(s) of viral replication targeted by the inhibitors. […] The cells were incubated until 24 hours post-infection and then infectious viral titers were determined by plaque assay and viral DNA production was determined by quantitative PCR (FIG. 5).

The nature of series [1]: Neutral red cytotoxicity assay in uninfected HFFs (14 day, with CPE assay). The class given is cell-based, human. Particulars: human, uninfected human foreskin fibroblasts (HFFs). Here is the method:
Anti-HCMV CPE inhibition and cytotoxicity assays. HFFs were infected with HCMV strain AD169 in the presence of serial dilutions of the compounds from 0.0192 to 60 μM. Fourteen days later the monolayers were stained with crystal violet, and retained cell density was quantified using a multiplate autoreader (BioTek). Cytotoxicity was measured the same way, except that the cells were uninfected and neutral red internalization by viable cells was measured.
Antiviral efficacy against HCMV. The ability of select HSV inhibitors to inhibit replication of another major human herpesvirus pathogen, human cytomegalovirus (HCMV) (65) was tested. This was based on the inhibitors strong suppression of HSV-1 and HSV-2 and the prediction that other members of the herpesvirus family would be sensitive to NTS inhibitors due to their shared DNA replication mechanism. Compounds #41, 46, 49, 55, 56, and 59 and the FDA-approved anti-HCMV drug ganciclovir were evaluated with crystal violet CPE and neutral red toxicity assays in HFFs. HFFs were infected with HCMV in the presence of serial dilutions of the compounds that were most inhibitory for HSVs. After 14 days the monolayers were stained and cell density was determined by OD reading. Compound cytotoxicity for uninfected cells was determined in the same manner except that neutral red uptake by viable cells was measured. […] The TI values for the four NTS inhibitors of HCMV ranged from 4 for compound #41 to 38 for #56. Therefore, NTS inhibitors can suppress HCMV replication in addition to inhibiting the HSVs.

Series [2] is described as follows: Neutral red cytotoxicity assay in HFFs (10 day, with plaque reduction assay). The class given is cell-based, human. Particulars: human, uninfected primary human foreskin fibroblasts (HFFs), 10 day assay. The method, then:
HCMV plaque reduction EC50 and toxicity assays. Low passage primary HFFs were infected with HCMV strain AD169 in the presence of serial dilutions of the compounds from 0.032 to 100 μM. Ten days later the monolayers were stained with 1% neutral red solution in PBS. After rinsing, plaques were counted using a stereomicroscope and the EC50 was interpolated from the data. Cytotoxicity was measured using a plate-based assay in which compounds were added to HFFs at 0.032 to 100 μM. At the end of the incubation period, plates were stained for 1 h with a neutral red solution in PBS. The stain was then removed, the plates rinsed in PBS and dried, and dye internalized by viable cells was determined at OD550. CC50 values were interpolated from the data.
Compounds #41, 46, 49, 55, 56, and 59 and the FDA-approved, anti-HCMV drug ganciclovir were subsequently evaluated with plaque reduction and toxicity assays in HFFs. HFFs were infected with HCMV in the presence of serial dilutions of the compounds. After 10 days the cultures were stained with neutral red and plaques were counted. Compound cytotoxicity for uninfected cells was determined in the same manner except that neutral red uptake by viable cells was measured by optical density. […] The TI values for the five NTS inhibitors of HCMV ranged from 5 for compound #46 to 17 for #55 and 59. Therefore, NTS inhibitors can suppress HCMV replication in addition to inhibiting the HSVs.

`CC(C)c1ccc(O)c(=O)c(O)c1` [Compound 46, Beta-thujaplicinol]: in the series on HSV-1 (50 μM throughout, relative to DMSO pre-treatment sample), the “Suppression of HSV-1 replication, standard conditions of infection” value was found to be 5.5 log10. Besides, the “Effect of pre-incubation on virions / virus entry (in words)” value in the series on HSV-1 (pre-incubation 50 μM, 1 hour, 37° C.) is on record as “not directly toxic to virions”. Also, the “Sensitivity of inhibitor-selected lineages after 3 rounds of growth (in words)” value with HSV-1 strain KOS is “remained as sensitive”. Moreover, on human RNaseH1, the “Effect on RNase H1 (in words)” value is “no effect”.

Turning to `Nc1nc2c(ncn2COCCO)c(=O)[nH]1` [ACV, Acyclovir, reference compound], in the series on HSV-2, the “Delay of addition with no effect on inhibition of DNA replication or viral accumulation” value is not above 5 hours post-infection and the “Time of addition at which compound becomes essentially ineffective” value worked out at 12 hours post-infection.

Broadly, the CC50 is the concentration that lowers cell viability or growth by half. Low readings indicate harm at low concentration, high ones better tolerance by the cells. On to `Cc1cc(C2CCCCC2)n(O)c(=O)c1` [Compound 41, Ciclopirox, reference compound], for which, in the series with HSV-1 strain KOS, the “Sensitivity of inhibitor-selected lineages after 3 rounds of growth (in words)” value is listed as “remained as sensitive”. In addition, the CC50 at 14 days in series [1] is 8.9 µM. Moreover, the 50% cytotoxic concentration (CC50) at 10 days in series [2] came to 2.9 µM.

The values are drawn from US10463664B2, “Inhibitors of HSV nucleotidyl transferases and uses therefor” (Saint Louis University, priority 2013, dated 2019).
